Experimental data from ChEMBL document CHEMBL3046926, “Molecular properties prediction, synthesis, and diuretic activity of phenoxy acetic acid bearing pyrazolines” (2013).

Legend:
Rattus norvegicus [1] = assay: Induction of diuresis in Rattus norvegicus albino (rat) assessed as urinary K+ excretion at 20 mg/kg, po measured at 5-18 hr after drug administration by standard Lipschitz method (reference value: 0.22 +/-0.004 mEq/L); assay type: functional, Urine
Rattus norvegicus [2] = assay: Induction of diuresis in Rattus norvegicus albino (rat) assessed as total urinary output at 20 mg/kg, po measured at 0-5 hr after drug administration by standard Lipschitz method (reference value: 2.46 +/-0.125 ml); assay type: functional, Urine
Rattus norvegicus [3] = assay: Induction of diuresis in Rattus norvegicus albino (rat) assessed as urinary K+ excretion at 20 mg/kg, po measured at 0-5 hr after drug administration by standard Lipschitz method (reference value: 0.46 +/-0.006 mEq/L); assay type: functional, Urine
Rattus norvegicus [4] = assay: Induction of diuresis action in Rattus norvegicus albino (rat) assessed as urinary excretion at 20 mg/kg, po measured at 0-5 hr after drug administration by standard Lipschitz method against untreated control (reference value: 1 no unit); assay type: functional, Urine
Rattus norvegicus [5] = assay: Induction of diuresis in Rattus norvegicus albino (rat) assessed as urinary Cl- excretion at 20 mg/kg, po measured at 0-5 hr after drug administration by standard Lipschitz method (reference value: 0.46 +/-0.005 mEq/L); assay type: functional, Urine
Rattus norvegicus [6] = assay: Induction of diuresis in Rattus norvegicus albino (rat) assessed as urinary Na+ excretion at 20 mg/kg, po measured at 0-5 hr after drug administration by standard Lipschitz method (reference value: 0.90 +/-0.003 mEq/L); assay type: functional, Urine
Rattus norvegicus [7] = assay: Induction of diuresis in Rattus norvegicus albino (rat) assessed as urinary excretion at 20 mg/kg, po measured at 5-18 hr after drug administration by standard Lipschitz method (reference value: 50.4%); assay type: functional, Urine
Rattus norvegicus [8] = assay: Induction of diuresis activity in Rattus norvegicus albino (rat) assessed as urinary excretion at 20 mg/kg, po measured at 0-5 hr after drug administration by standard Lipschitz method against frusemide-treated control (reference value: 0.5 no unit); assay type: functional, Urine
Rattus norvegicus [9] = assay: Induction of diuresis action in Rattus norvegicus albino (rat) assessed as urinary excretion at 20 mg/kg, po measured at 5-18 hr after drug administration by standard Lipschitz method against untreated control (reference value: 1 no unit); assay type: functional, Urine
Rattus norvegicus [10] = assay: Induction of diuresis in Rattus norvegicus albino (rat) assessed as total urinary output at 20 mg/kg, po measured at 5-18 hr after drug administration by standard Lipschitz method (reference value: 1.26 +/-0.049 ml); assay type: functional, Urine
Rattus norvegicus [11] = assay: Induction of diuresis in Rattus norvegicus albino (rat) assessed as urinary Cl- excretion at 20 mg/kg, po measured at 5-18 hr after drug administration by standard Lipschitz method (reference value: 0.38 +/-0.011 mEq/L); assay type: functional, Urine
Rattus norvegicus [12] = assay: Induction of diuresis activity in Rattus norvegicus albino (rat) assessed as urinary excretion at 20 mg/kg, po measured at 5-18 hr after drug administration by standard Lipschitz method against frusemide-treated control (reference value: 0.2 no unit); assay type: functional, Urine
Rattus norvegicus [13] = assay: Induction of diuresis in Rattus norvegicus albino (rat) assessed as normal saline intake at 20 mg/kg, po measured at 5-18 hr after drug administration by standard Lipschitz method (reference value: 2.50 +/-0.036 ml); assay type: functional
Rattus norvegicus [14] = assay: Induction of diuresis in Rattus norvegicus albino (rat) assessed as urinary excretion at 20 mg/kg, po measured at 0-5 hr after drug administration by standard Lipschitz method (reference value: 98.40%); assay type: functional, Urine
Rattus norvegicus [15] = assay: Induction of diuresis in Rattus norvegicus albino (rat) assessed as normal saline intake at 20 mg/kg, po measured at 0-5 hr after drug administration by standard Lipschitz method (reference value: 2.50 +/-0.036 ml); assay type: functional
Rattus norvegicus [16] = assay: Induction of diuresis in Rattus norvegicus albino (rat) assessed as urinary Na+ excretion at 20 mg/kg, po measured at 5-18 hr after drug administration by standard Lipschitz method (reference value: 0.65+/-0.006 mEq/L); assay type: functional, Urine

Row | Structure (SMILES) | Activity (Rattus norvegicus [1]) | Activity (Rattus norvegicus [2]) | Activity (Rattus norvegicus [3]) | Ratio (Rattus norvegicus [4]) | Activity (Rattus norvegicus [5]) | Activity (Rattus norvegicus [6]) | Activity (Rattus norvegicus [7]) | Ratio (Rattus norvegicus [8]) | Ratio (Rattus norvegicus [9]) | Activity (Rattus norvegicus [10]) | Activity (Rattus norvegicus [11]) | Ratio (Rattus norvegicus [12]) | Activity (Rattus norvegicus [13]) | Activity (Rattus norvegicus [14]) | Activity (Rattus norvegicus [15]) | Activity (Rattus norvegicus [16])
1 | COc1ccc(C2=NN(C(=O)c3ccc(Cl)cc3)C(c3ccc(OCC(=O)O)c(OC)c3)C2)cc1 (configuration not stated) | 0.068 mEq/L | 1.21 mL | 0.36 mEq/L | 0.4 | 0.36 mEq/L | 0.76 mEq/L | 8.07% | 0.2 | 0.16 | 0.23 mL | 0.06 mEq/L | 0.03 | 2.85 mL | 42.45% | 2.85 mL | 0.11 mEq/L
2 | COc1ccc(C2=NN(C(=O)COc3ccccc3)C(c3ccc(OCC(=O)O)c(OC)c3)C2)cc1 (configuration not stated) | 1.35 mEq/L | 5.13 mL | 0.54 mEq/L | 1.8 | 0.96 mEq/L | 1.92 mEq/L | 190.49% | 0.91 | 3.8 | 5.41 mL | 1.38 mEq/L | 0.76 | 2.84 mL | 180.63% | 2.84 mL | 2.62 mEq/L
3 | COc1cc(C2CC(c3ccc(O)cc3O)=NN2C(=O)COc2ccccc2)ccc1OCC(=O)O (configuration not stated) | 2.12 mEq/L | 4.11 mL | 0.55 mEq/L | 1.5 | 0.66 mEq/L | 1.92 mEq/L | 279.19% | 0.76 | 5.58 | 7.65 mL | 1.69 mEq/L | 1.12 | 2.74 mL | 150% | 2.74 mL | 3.66 mEq/L
4 | COc1cc(C2CC(c3ccc(Cl)cc3)=NN2C(=O)c2ccc(C)cc2)ccc1OCC(=O)O (configuration not stated) | 2.66 mEq/L | 5.83 mL | 0.81 mEq/L | 2.2 | 0.76 mEq/L | 1.56 mEq/L | 466.66% | 1.11 | 9.32 | 12.18 mL | 2.69 mEq/L | 1.88 | 2.61 mL | 223.37% | 2.61 mL | 4.31 mEq/L
5 | COc1cc(C2CC(c3ccc(Cl)cc3)=NN2C(=O)COc2ccccc2)ccc1OCC(=O)O (configuration not stated) | 1.96 mEq/L | 7.28 mL | 1.74 mEq/L | 2.5 | 1.66 mEq/L | 3.26 mEq/L | 345.91% | 1.26 | 6.92 | 10.17 mL | 1.77 mEq/L | 1.39 | 2.94 mL | 247.61% | 2.94 mL | 3.82 mEq/L
6 | COc1cc(C2CC(c3ccc(Cl)cc3)=NN2C(=O)Cc2ccccc2)ccc1OCC(=O)O (configuration not stated) | 1.65 mEq/L | 4.45 mL | 0.74 mEq/L | 1.5 | 0.67 mEq/L | 1.26 mEq/L | 219.36% | 0.76 | 4.38 | 6.23 mL | 1.96 mEq/L | 0.88 | 2.84 mL | 156.69% | 2.84 mL | 2.86 mEq/L
7 | COc1cc(C2CC(c3ccc(Cl)cc3)=NN2C(=O)COc2ccc(C)cc2)ccc1OCC(=O)O (configuration not stated) | 1.87 mEq/L | 5.65 mL | 1.32 mEq/L | 2 | 1.36 mEq/L | 2.61 mEq/L | 284.96% | 1.01 | 5.68 | 8.15 mL | 1.68 mEq/L | 1.14 | 2.86 mL | 197.55% | 2.86 mL | 3.13 mEq/L
8 | COc1cc(C2CC(c3ccc(O)cc3)=NN2C(=O)COc2ccc(C)cc2)ccc1OCC(=O)O (configuration not stated) | 0.19 mEq/L | 1.81 mL | 0.25 mEq/L | 0.6 | 0.24 mEq/L | 0.45 mEq/L | 11.45% | 0.3 | 0.22 | 0.33 mL | 0.07 mEq/L | 0.04 | 2.88 mL | 62.84% | 2.88 mL | 0.12 mEq/L
9 | COc1cc(C2CC(c3ccccc3)=NN2C(=O)c2ccccc2O)ccc1OCC(=O)O (configuration not stated) | 0.12 mEq/L | 1.16 mL | 0.16 mEq/L | 0.5 | 0.16 mEq/L | 0.35 mEq/L | 8.54% | 0.25 | 0.16 | 0.2 mL | 0.06 mEq/L | 0.03 | 2.34 mL | 49.57% | 2.34 mL | 0.16 mEq/L
10 | COc1cc(C2CC(c3ccc(O)cc3)=NN2C(=O)c2ccc(Cl)cc2)ccc1OCC(=O)O (configuration not stated) | 0.56 mEq/L | 2.5 mL | 0.45 mEq/L | 0.9 | 0.46 mEq/L | 0.87 mEq/L | 183.45% | 0.45 | 3.66 | 5.21 mL | 0.95 mEq/L | 0.74 | 2.84 mL | 89.28% | 2.84 mL | 1.95 mEq/L
11 | COc1cc(C2CC(c3ccc(Cl)cc3)=NN2C(=O)c2ccc(Cl)cc2)ccc1OCC(=O)O (configuration not stated) | 1.76 mEq/L | 6.06 mL | 1.55 mEq/L | 2.2 | 1.94 mEq/L | 2.82 mEq/L | 278% | 1.11 | 5.56 | 7.43 mL | 1.77 mEq/L | 1.12 | 2.67 mL | 226.96% | 2.67 mL | 3.26 mEq/L
12 | NS(=O)(=O)c1cc(C(=O)O)c(NCc2ccco2)cc1Cl [FUROSEMIDE] | 3.11 mEq/L | 5.35 mL | 1.27 mEq/L | 1.97 | 1.24 mEq/L | 2.44 mEq/L | 247.63% | 1 | 4.94 | 6.81 mL | 1.83 mEq/L | 1 | 2.75 mL | 194.54% | 2.75 mL | 3.11 mEq/L
